We go through 2 compounds from patent publication US20110245349A1, “BENZYL ALCOHOL MIXTURE FOR TREATING PREMATURE EJACULATION” (PANAXIA LTD., priority 2010, published 2011).

The assay deals with sexual desensitization of male subjects. The assay is described as follows: Desensitization effect scored by male subjects after rubbing the mixture on the genital organs and manual stimulation. The assay is classed as in vivo, human. The settings on record: for Mean desensitization effect: scale of 1-10, mean of 5 subjects. The method, then: In a trial which was conducted on 5 healthy, sexually active male subjects the following formulations were tested: Benzyl alcohol in concentrations: 1%, 3%, 5%, 7% and 10%. Each of the concentrations was tested in the following vehicles: aqueous alcoholic solution, gel, ointment and cream. For each formulation the participants were requested to rub the mixture on their genital organs until complete skin absorption and then wait for the full effect for 5 minutes. After the waiting period the participants were requested to perform manual stimulation of their genital organs and describe the desensitization effect of the mixture in a scale of 1-10.
In another trial, menthol was added to the mixture and the same procedure that was described earlier was applied to assess the effect of menthol addition.

As to `OCc1ccccc1` [Benzyl alcohol], for the setting “each of the benzyl alcohol concentrations tested (1-10%)”, the “Desensitization effect (in words)” value is reported as “effective as a desensitizer”. For the same compound, the “Optimal concentration of benzyl alcohol” value (found in the applicant's tests) stood at 5%. The Mean desensitization effect turned out to be 3.2 (aqueous alcoholic solution (1:1 water ethanol mixture), benzyl alcohol 1%, 5 min wait); 4.6 (aqueous alcoholic solution (1:1 water ethanol mixture), benzyl alcohol 3%); 6.2 (aqueous alcoholic solution (1:1 water ethanol mixture), benzyl alcohol 5%); 7.6 (aqueous alcoholic solution (1:1 water ethanol mixture), benzyl alcohol 7%); 8.0 (aqueous alcoholic solution (1:1 water ethanol mixture), benzyl alcohol 10%); 2.8 (aqueous gel (1% hydroxyethylcellulose gel), benzyl alcohol 1%). Also, the Mean desensitization effect is 4.2 (aqueous gel (1% hydroxyethylcellulose gel), benzyl alcohol 3%); 5.6 (aqueous gel (1% hydroxyethylcellulose gel), benzyl alcohol 5%); 6.6 (aqueous gel (1% hydroxyethylcellulose gel), benzyl alcohol 7%); 7.4 (aqueous gel (1% hydroxyethylcellulose gel), benzyl alcohol 10%); 2.4 (cream, benzyl alcohol 1%); 3.6 (cream, benzyl alcohol 3%). Further, the Mean desensitization effect reads like this: (cream, benzyl alcohol 5%) 5.2; (cream, benzyl alcohol 7%) 6.2; (cream, benzyl alcohol 10%) 6.8; (ointment, benzyl alcohol 1%) 2.0; (ointment, benzyl alcohol 3%) 3.2; (ointment, benzyl alcohol 5%) 4.8. In addition, the Mean desensitization effect runs as follows: (ointment, benzyl alcohol 7%) 5.8; (ointment, benzyl alcohol 10%) 6.2.

Turning to `CC1CCC(C(C)C)C(O)C1` (stereo not drawn) [menthol, Menthol], the “Desensitization effect (in words)” value is given as “dramatic effect” (menthol combined with benzyl alcohol gel, compared with the same concentration of benzyl alcohol alone) and “did not create a substantial desensitization effect” (sole use of menthol in 1% Hydroxyethylcellulose gel).
